Data taken from ChEMBL document CHEMBL4219083, “Reduction of Circulating Cancer Cells and Metastases in Breast-Cancer Models by a Potent EphA2-Agonistic Peptide-Drug Conjugate” (J Med Chem, 2018).
Calls of active or inactive are those of the source. No cut-off for these calls is given here.

Assays:
4T1 [1] = assay: Antimetastatic activity against mouse 4T1 cells implanted in BALB/c mouse assessed as reduction in CD31-expressing vasculature at 24.5 mg/kg administered thrice per week for 2 weeks after 15 days post implantation by immunostaining-based assay; format: functional, organism-based
MDA-MB-231 [2] = assay: Antimetastatic activity against human MDA-MB-231 cells xenografted in NOD-scid mouse assessed as reduction in circulating tumor cells at 24.5 mg/kg, iv administered thrice per week for 2 weeks immunofluorescent staining-based assay; format: functional, organism-based
4T1 [3] = assay: Antimetastatic activity against mouse 4T1 cells implanted in BALB/c mouse assessed as reduction in gross lung-metastasis count at 24.5 mg/kg administered thrice per week for 2 weeks after 15 days post implantation relative to control; format: functional; design: scale not given: the % may be the effect or the level left
4T1 [4] = assay: Antimetastatic activity against mouse 4T1 cells implanted in BALB/c mouse assessed as reduction in microscopic lung nodules at 24.5 mg/kg administered thrice per week for 2 weeks after 15 days post implantation by H and E staining-based assay; format: functional, organism-based
Mus musculus = assay: Toxicity in BALB/c mouse implanted with mouse 4T1 cells assessed as reduction in body weight at 24.5 mg/kg administered thrice per week for 2 weeks after 15 days post implantation; format: organism-based; settings: in vivo
MDA-MB-231 [5] = assay: Antimetastatic activity against human MDA-MB-231 cells xenografted in NOD-scid mouse assessed as reduction in tumor burden at 24.5 mg/kg, iv administered thrice per week for 2 weeks; format: functional, organism-based

CCCC[C@H](NC(=O)[C@@H]1CCCN1C(=O)[C@@H](NC(=O)[C@H](CO)NC(=O)[C@H](CC(=O)O)NC(=O)[C@@H]1CCCN1C(=O)[C@H](Cc1ccc(O)cc1)NC(=O)[C@H](C)NC(=O)[C@H](CO)NC(=O)COc1ccc(F)c(Cl)c1)C(C)C)C(=O)N[C@@H](CCO)C(=O)N[C@@H](CO)C(=O)NCC(=O)NCCCC[C@H](NC(=O)CNC(=O)[C@H](CO)NC(=O)[C@H](CCO)NC(=O)[C@H](CCCC)NC(=O)[C@@H]1CCCN1C(=O)[C@@H](NC(=O)[C@H](CO)NC(=O)[C@H](CC(=O)O)NC(=O)[C@@H]1CCCN1C(=O)[C@H](Cc1ccc(O)cc1)NC(=O)[C@H](C)NC(=O)[C@H](CO)NC(=O)COc1ccc(F)c(Cl)c1)C(C)C)C(=O)NCC(=O)N[C@H](CCCCNC(=O)CCCc1cn(CCCCCC(=O)O[C@@H](C(=O)O[C@H]2C[C@@]3(O)[C@@H](OC(=O)c4ccccc4)[C@@H]4[C@]5(OC(C)=O)CO[C@@H]5C[C@H](O)[C@@]4(C)C(=O)[C@H](OC(C)=O)C(=C2C)C3(C)C)[C@@H](NC(=O)c2ccccc2)c2ccccc2)nn1)C(=O)NCC(=O)O
Activity (4T1 [1]): Active | Activity (MDA-MB-231 [2]): Active | Activity (4T1 [3]): >75% | Activity (4T1 [4]): Active | Activity (Mus musculus): Non-Toxic | Activity (MDA-MB-231 [5]): Active
